Patent US4195101A, “2',6'-Dihydroxy-9-(2,5-dihydroxyphenyl)octylphenone and its use as an anti-oxidant” (The Lion Dentifrice Co. Ltd., priority 1977, dated 1980)

Tests used:
[1] = Test I: peroxide value of refined lard by the active oxygen method (AOM); conditions: for Peroxide value: 97.5° C.
Method: (§1) The above-obtained compound was tested for its anti-oxidative effects in terms of peroxide value by the active oxygen method (AOM) and also in terms of oxygen absorption. […] Each of the tests I and II are described below together with the results thereof.
Varied amounts of the compound were admixed with and uniformly dissolved in portions of refined lard each weighing 20 g to prepare test samples. Each test sample was kept in an oil bath of thermostat at 97.5°±0.5° C., while air was forcedly blown into the lard at a rate of […].
The thus treated samples of the lard were analyzed for the peroxide value (POV for brevity) periodically or at certain intervals, in accordance with the modified Lea's method as described in "Yukagaku" (Journal of Japan Oil Chemist Society), vol. 19(15), p. 340, 1970.
In comparison, similar experiments were undertaken for the samples of the same lard with addition of BHA instead of the compound of the present invention or without addition of any anti-oxidant.

[2] = Test II: oxygen absorption in corn salad oil, Warburg's manometer; conditions: 0.02% by weight in corn salad oil, 60° C.
Method: as §1
The compound of the present invention was determined for the rate of oxygen absorption in a corn salad oil to which 0.02% by weight of the compound had been added. For the purpose, 2 grams of the corn salad oil sample was taken in the receptacle of Warburg's manometer with thermostat at 60°±0.1° C., which was shaken with 110 vibrations per minute in a vibration amplitude of 60 mm. The rate of oxygen absorption was determined by reading the manometer according to the procedure set forth in "Jikken Kagaku Koza" (Lectures in Experimental Chemistry), vol. 24, p. 85, 1958, Maruzen Publishing, Japan. In this testing, the receptacle was totally wrapped with an aluminum foil to prevent the photooxidation of the oil, and mercury was used as the manometer fluid in place of Brodie's solution in order to minimize any possible influence caused by fluctuations in the atmospheric pressure.
Further, in comparison, a similar test was conducted using the same corn salad oil with addition of 0.02% by weight of BHA or without addition of any anti-oxidant.

[3] = LD50, oral administration, mouse; conditions: in vivo, po
[4] = tested on: mouse; test: LD50, oral administration, mouse
[5] = Irritation (statement on properties of the compound)
[6] = Solubility rating of 10 mg of the crystal in various solvents (Table I); assay type: physicochemical; conditions: for Rating of Solubility: 10 mg of crystal
Method: This compound is obtained as needle-like or plate-like crystals white to pale-yellow in appearance, tasteless, odorless and non-irritative, and has a melting point of 123.5° to 124° C. The compound is soluble in various solvents as shown in Table I. In Table I, the solubility of the compound was rated by A, B, C and D and each rating was determined for 10 mg of the crystal as follows.
A: Soluble in less than 0.1 ml of solvent.
B: Soluble in 0.1-1.0 ml of solvent.
C: Soluble in 1.0-10.0 ml of solvent.
[…]: Soluble in more than 10.0 ml of solvent.

[7] = Anti-oxidative activity, general statements

In the case of `O=C(CCCCCCCCc1cc(O)ccc1O)c1c(O)cccc1O` [Inventive compound, 2',6'-dihydroxy-9-(2,5-dihydroxyphenyl)octylphenone], the Peroxide value ([1]; 0.001 (% by weight) in lard, 8 hours) was 2.4 meq./kg, the Peroxide value ([1]; 0.001 (% by weight) in lard, 16 hours) was 5.3 meq./kg and the Peroxide value ([1]; 0.001 (% by weight) in lard, 24 hours) was 8.2 meq./kg. For the same compound, the Peroxide value ([1]; 0.001 (% by weight) in lard, 32 hours) was 14.9 meq./kg, the Peroxide value ([1]; 0.001 (% by weight) in lard, 40 hours) was 419.9 meq./kg and the Peroxide value ([1]; 0.005% by weight in lard, 8 hours) was 1.8 meq./kg. The Peroxide value ([1]; 0.005% by weight in lard, 16 hours) was 5.0 meq./kg, the Peroxide value ([1]; 0.005% by weight in lard, 24 hours) was 5.9 meq./kg and the Peroxide value ([1]; 0.005% by weight in lard, 32 hours) was 6.3 meq./kg. For the same compound, the Peroxide value ([1]; 0.005% by weight in lard, 48 hours) was 12.0 meq./kg, the Peroxide value ([1]; 0.005% by weight in lard, 56 hours) was 18.2 meq./kg and the Peroxide value ([1]; 0.005% by weight in lard, 64 hours) was 560.9 meq./kg. For the same compound, the “prevention of oxidative denaturation of lard, compared with 0.02% by weight of BHA” value ([1]; 0.005% by weight of the compound in lard) was “to the same extent as done by adding 0.02% by weight of BHA”, the Peroxide value ([1]; 0.01% by weight in lard, 8 hours) was 1.5 meq./kg and the Peroxide value ([1]; 0.01% by weight in lard, 16 hours) was 3.2 meq./kg. For the same compound, the Peroxide value ([1]; 0.01% by weight in lard, 24 hours) was 4.8 meq./kg, the Peroxide value ([1]; 0.01% by weight in lard, 32 hours) was 5.4 meq./kg and the Peroxide value ([1]; 0.01% by weight in lard, 40 hours) was 7.7 meq./kg. The Peroxide value ([1]; 0.01% by weight in lard, 48 hours) was 9.3 meq./kg, the Peroxide value ([1]; 0.01% by weight in lard, 56 hours) was 11.3 meq./kg and the Peroxide value ([1]; 0.01% by weight in lard, 64 hours) was 15.4 meq./kg. The Peroxide value ([1]; 0.01% by weight in lard, 72 hours) was 22.1 meq./kg, the Peroxide value ([1]; 0.01% by weight in lard, 80 hours) was 170.9 meq./kg and the “anti-oxidative effect compared with the same amount of BHA” value ([1]; 0.02% by weight) was “approximately twice as high as the same amount of BHA”. It also gave a Peroxide value ([1]; 0.02% by weight in lard, 8 hours) of 1.8 meq./kg, a Peroxide value ([1]; 0.02% by weight in lard, 16 hours) of 2.9 meq./kg and a Peroxide value ([1]; 0.02% by weight in lard, 24 hours) of 3.8 meq./kg. It also gave a Peroxide value ([1]; 0.02% by weight in lard, 32 hours) of 4.5 meq./kg, a Peroxide value ([1]; 0.02% by weight in lard, 40 hours) of 6.0 meq./kg and a Peroxide value ([1]; 0.02% by weight in lard, 48 hours) of 7.2 meq./kg. The Peroxide value ([1]; 0.02% by weight in lard, 56 hours) was 8.2 meq./kg, the Peroxide value ([1]; 0.02% by weight in lard, 64 hours) was 10.6 meq./kg and the Peroxide value ([1]; 0.02% by weight in lard, 72 hours) was 13.2 meq./kg. The Peroxide value ([1]; 0.02% by weight in lard, 80 hours) was 14.5 meq./kg, the Peroxide value ([1]; 0.02% by weight in lard, 96 hours) was 21.5 meq./kg and the Peroxide value ([1]; 0.02% by weight in lard, 112 hours) was 59.3 meq./kg. It also gave a Peroxide value ([1]; 0.02% by weight in lard, 120 hours) of 390.7 meq./kg, a Peroxide value ([1]; 0.1% by weight in lard, 8 hours) of 2.1 meq./kg and a Peroxide value ([1]; 0.1% by weight in lard, 16 hours) of 3.0 meq./kg. It also gave a Peroxide value ([1]; 0.1% by weight in lard, 24 hours) of 4.1 meq./kg, a Peroxide value ([1]; 0.1% by weight in lard, 32 hours) of 5.2 meq./kg and a Peroxide value ([1]; 0.1% by weight in lard, 40 hours) of 7.9 meq./kg. For the same compound, the Peroxide value ([1]; 0.1% by weight in lard, 48 hours) was 8.7 meq./kg, the Peroxide value ([1]; 0.1% by weight in lard, 56 hours) was 9.9 meq./kg and the Peroxide value ([1]; 0.1% by weight in lard, 64 hours) was 11.8 meq./kg. The Peroxide value ([1]; 0.1% by weight in lard, 72 hours) was 13.5 meq./kg, the Peroxide value ([1]; 0.1% by weight in lard, 80 hours) was 16.0 meq./kg and the Peroxide value ([1]; 0.1% by weight in lard, 96 hours) was 18.5 meq./kg. For the same compound, the Peroxide value ([1]; 0.1% by weight in lard, 112 hours) was 24.0 meq./kg, the Peroxide value ([1]; 0.1% by weight in lard, 120 hours) was 24.1 meq./kg and the Peroxide value ([1]; 0.1% by weight in lard, 144 hours) was 29.9 meq./kg. It also gave a Peroxide value ([1]; 0.1% by weight in lard, 168 hours) of 32.1 meq./kg, a Peroxide value ([1]; 0.1% by weight in lard, 192 hours) of 38.1 meq./kg and a Peroxide value ([1]; 0.1% by weight in lard, 200 hours) of 45.0 meq./kg. For the same compound, the Peroxide value ([1]; 0.1% by weight in lard, 264 hours) was 678.2 meq./kg, the Oxygen absorption ([2]; 85 hours) was 84.4 μ1/g and the Oxygen absorption ([2]; 140 hours) was 138.7 μ1/g. For the same compound, the Oxygen absorption ([2]; 166 hours) was 159.8 μ1/g, the Oxygen absorption ([2]; 199 hours) was 174.8 μ1/g and the Oxygen absorption ([2]; 263 hours) was 238.0 μ1/g. It also gave an Oxygen absorption ([2]; 288 hours) of 280.4 μ1/g, an Oxygen absorption ([2]; 320 hours) of 334.6 μ1/g and an Oxygen absorption ([2]; 343 hours) of 375.3 μ1/g. For the same compound, the LD50 [3] was > 2000 mg/kg, the “LD50 value compared with BHT” value [4] was “about the same as in BHT” and the irritation [5] was “non-irritative”. The “Rating of Solubility” value ([6]; 1,2-Dichloroethane, at 25° C.) was “C (Soluble in 1.0-10.0 ml of solvent)”, the “Rating of Solubility” value ([6]; 1,2-Dichloroethane, at the boiling point of solvent) was “A (Soluble in less than 0.1 ml of solvent)” and the “Rating of Solubility” value ([6]; Acetone, at 25° C.) was “A (Soluble in less than 0.1 ml of solvent)”. For the same compound, the “Rating of Solubility” value ([6]; Acetone, at the boiling point of solvent) was “A (Soluble in less than 0.1 ml of solvent)”, the “Rating of Solubility” value ([6]; Acetonitrile, at 25° C.) was “A (Soluble in less than 0.1 ml of solvent)” and the “Rating of Solubility” value ([6]; Acetonitrile, at the boiling point of solvent) was “A (Soluble in less than 0.1 ml of solvent)”. The “Rating of Solubility” value ([6]; Benzene, at the boiling point of solvent) was “B (Soluble in 0.1-1.0 ml of solvent)”, the “Rating of Solubility” value ([6]; Carbon tetrachloride, at the boiling point of solvent) was “C (Soluble in 1.0-10.0 ml of solvent)” and the “Rating of Solubility” value ([6]; Chloroform, at 25° C.) was “C (Soluble in 1.0-10.0 ml of solvent)”. For the same compound, the “Rating of Solubility” value ([6]; Chloroform, at the boiling point of solvent) was “C (Soluble in 1.0-10.0 ml of solvent)”, the “Rating of Solubility” value ([6]; Dichloromethane, at the boiling point of solvent) was “C (Soluble in 1.0-10.0 ml of solvent)” and the “Rating of Solubility” value ([6]; Diethylether, at 25° C.) was “A (Soluble in less than 0.1 ml of solvent)”. The “Rating of Solubility” value ([6]; Diethylether, at the boiling point of solvent) was “A (Soluble in less than 0.1 ml of solvent)”, the “Rating of Solubility” value ([6]; Ethyl acetate, at 25° C.) was “A (Soluble in less than 0.1 ml of solvent)” and the “Rating of Solubility” value ([6]; Ethyl acetate, at the boiling point of solvent) was “A (Soluble in less than 0.1 ml of solvent)”. The “Rating of Solubility” value ([6]; Ethyl alcohol, at 25° C.) was “A (Soluble in less than 0.1 ml of solvent)”, the “Rating of Solubility” value ([6]; Ethyl alcohol, at the boiling point of solvent) was “A (Soluble in less than 0.1 ml of solvent)” and the “Rating of Solubility” value ([6]; Methyl alcohol, at 25° C.) was “A (Soluble in less than 0.1 ml of solvent)”. The “Rating of Solubility” value ([6]; Methyl alcohol, at the boiling point of solvent) was “A (Soluble in less than 0.1 ml of solvent)”, the “Rating of Solubility” value ([6]; Pyridine, at 25° C.) was “A (Soluble in less than 0.1 ml of solvent)” and the “Rating of Solubility” value ([6]; Pyridine, at the boiling point of solvent) was “A (Soluble in less than 0.1 ml of solvent)”. For the same compound, the “Rating of Solubility” value ([6]; Toluene, at the boiling point of solvent) was “B (Soluble in 0.1-1.0 ml of solvent)”, the “solubility in ethyl acetate and ethyl alcohol” value ([6]; ethyl acetate and ethyl alcohol, in words) was “readily soluble” and the “Rating of Solubility” value ([6]; iso-Propyl alcohol, at 25° C.) was “A (Soluble in less than 0.1 ml of solvent)”. The “Rating of Solubility” value ([6]; iso-Propyl alcohol, at the boiling point of solvent) was “A (Soluble in less than 0.1 ml of solvent)”, the “solubility in ligroin and chloroform” value ([6]; ligroin and chloroform, in words) was “insoluble or hardly soluble” and the “Rating of Solubility” value ([6]; n-Butyl alcohol, at 25° C.) was “A (Soluble in less than 0.1 ml of solvent)”. For the same compound, the “Rating of Solubility” value ([6]; n-Butyl alcohol, at the boiling point of solvent) was “A (Soluble in less than 0.1 ml of solvent)”, the “Rating of Solubility” value ([6]; n-Propyl alcohol, at 25° C.) was “A (Soluble in less than 0.1 ml of solvent)” and the “Rating of Solubility” value ([6]; n-Propyl alcohol, at the boiling point of solvent) was “A (Soluble in less than 0.1 ml of solvent)”. For the same compound, the “solubility in 1,2-dichloroethane, toluene or benzene” value ([6]; room temperature, in words) was “insoluble or hardly soluble”, the “anti-oxidative activities (summary of peroxide value and oxygen absorption tests)” value ([7]; AOM peroxide value and oxygen absorption) was “excellent anti-oxidative activities” and the “anti-oxidative activities compared with the conventional anti-oxidant BHA” value ([7]; in foodstuffs, such as lard or the like) was “much higher anti-oxidative activities than the conventional anti-oxidant BHA”.
